{"source": "patent US20250195553A1", "about": "“Use of Genipin-1-B-D-Gentiobioside in Preparation of Drug” (Guizhou Bailing Group Pharmaceutical Co., Ltd., priority 2023, published 2025)", "key": {"[1]": {"test_system": "Mycoplasma Pneumoniae (MP)", "assay": "Inflammatory factors in lung tissue of MP-infected mice (ELISA)", "type": "in vivo, BALB/C mice", "conditions": "4 days", "protocol": "[…] Each group consisted of 10 mice, with an equal number of males and females. Except for the normal control group, all mice were lightly anesthetized with isoflurane and infected intranasally with Mycoplasma Pneumoniae (50 μl per mouse) for three consecutive days. On the day of infection, each treatment group received nebulized medication once daily for four consecutive days, while the normal control group and model control group received nebulized saline under the same conditions. On the fifth day, the mice were weighed, sacrificed by cervical dislocation, and their lung tissues were dissected, weighed, and used to calculate the lung index and lung index inhibition rate; measure the levels of inflammatory factors in the lung tissue; measure the serum CRP levels; and conduct pathological examinations of the lung tissue. The results were statistically analyzed using the t-test for intergroup comparisons.\n(1) Sample Collection and Storage: Tissue Homogenate Samples: After weighing, lung tissues were collected from 8 mice in each group and stored at −80° C. The MP Fastprep-24 5G Rapid Sample Preparation System was used to homogenize the tissues, followed by centrifugation at […] and 3000 r/min for 10 minutes using a low-temperature high-speed centrifuge. The supernatant was then aspirated, aliquoted, and stored at −80° C. for future use, avoiding repeated freeze-thaw cycles.\n(2) The microplate, which had been equilibrated to room temperature, was removed from the sealed bag. Different concentrations of standards were added to the corresponding wells, with 50 μL per well. For experimental samples, 10 μL of sample was added to each well, followed by 40 μL of diluent. Except for the blank wells, 100 μL of HRP (Horseradish Peroxidase) was added to each well. The reaction wells were sealed with sealing tape and incubated at 37° C. for 1 hour. The plate was then washed with wash buffer four times. After the final wash, the plate was inverted and all residual liquid was patted dry on absorbent paper. 50 μL of both Substrate A and Substrate B were added to each well. The reaction wells were then sealed with sealing tape and incubated at 37° C. for 15 minutes. After that, 50 μL of stop solution was added to each well, and the absorbance at 450 nm was measured using a microplate reader within 15 minutes. The results were then calculated."}, "[2]": {"test_system": "Human Coronavirus 229E (HCoV-229E)", "type": "in vivo"}, "[3]": {"test_system": "Human Respiratory Syncytial Virus (RSV)", "assay": "RSV viral load in mouse lung tissue (RT-PCR), nebulization", "type": "in vivo", "protocol": "[…] Each group consisted of 10 mice, with an equal number of males and females. Except for the normal control group, all mice were lightly anesthetized with isoflurane and infected with respiratory syncytial virus (RSV) via intranasal administration, with each mouse receiving 35 μl of the virus. On the day of infection, the treatment groups began inhalation administration. Each group received nebulization for 25 minutes once daily for four consecutive days. The normal control group and the model control group received nebulized saline under the same conditions. On the fifth day, after weighing, the mice were sacrificed by cervical dislocation, and their lung tissues were dissected, weighed, and used to calculate the lung index and lung index inhibition rate. The lung tissues were also retained for virus load, pathological examination, and inflammatory factor detection. The results were statistically analyzed using the t-test for intergroup comparisons.\nAfter dissecting the mice, the lung tissues were collected and stored in separate containers at −80° C. in a low-temperature freezer. The lung tissues were then removed from the −80° C. freezer and placed in a clean mortar. A small amount of liquid nitrogen was poured into the mortar, and the tissues were ground into powder using a pestle. The powder was collected in a 1.5 ml centrifuge tube, and 1 ml of TRIzol Reagent was immediately added. The tube was gently tapped at the bottom to mix the sample and ensure it was resuspended as soon as possible. The centrifuge tube was then placed horizontally at room temperature and incubated for 20 minutes. Next, it was centrifuged at 4° C. and 12,000 rpm for 10 minutes. The clear supernatant was transferred to a new 1.5 ml centrifuge tube, and 0.2 ml of chloroform was added. The tube was tightly capped, vigorously shaken for 15 seconds, and then incubated at room temperature for 2-3 minutes until the liquid separated into layers. After centrifuging at 4° C. and 12,000 rpm for 15 minutes, the transparent supernatant was carefully transferred to a new 1.5 ml centrifuge tube. Then, 0.5 ml of isopropanol was added, mixed well, and incubated at room temperature for 30 minutes. Following centrifugation at 4° C. and 12,000 rpm for 10 minutes, the supernatant was discarded. The precipitate was gently washed with 1 ml of 75% ethanol (to allow the white precipitate to float slightly), and then centrifuged at 4° C. and 7,500 rpm for 5 minutes. The supernatant was completely aspirated, and the RNA precipitate was briefly dried for 5-10 minutes. The precipitate was then dissolved in 20 μl of DEPC (Diethylpyrocarbonate)-treated water and stored in a −80° C. low-temperature freezer.\nTreatment of Control Nucleic Acid: DEPC-H2O was used as a negative control. For the positive control, a series of four concentrations were prepared by gradient dilution at 10^7, 10^6, 10^5, and 10^4 copies/ml.\nReagent Preparation: Mix n×18 μl of RSV nucleic acid fluorescent PCR detection mixture, n×1 μl of internal control, and n×1 μl of RT-PCR enzyme (where n is the number of reaction tubes). Shake vigorously for a few seconds and centrifuge at 3000 rpm for a few seconds.\nSample Addition: Dispense 20 μl of the above mixture into each PCR tube. Then, add 5 μl of sample nucleic acid extract, DEPC-H2O, and positive control to the respective PCR tubes. Tightly close the tube caps, centrifuge for a few seconds to ensure all liquids are at the bottom, and immediately proceed with PCR amplification.\nPCR Amplification: Place the reaction tubes in a quantitative fluorescent PCR instrument. Set the cycling parameters as follows: 45° C. for 10 minutes; 95° C. for 15 minutes; then 40 cycles of 95° C. for 15 seconds→60° C. for 60 seconds. Single-point fluorescent detection is performed at 60° C., with a reaction volume of 25 μl.\nFluorescent Channel Selection: Select the FAM and HEX/VIC/JOE channels for detection. […]"}, "[4]": {"conditions": "37.5 mg/ml nebulization 25 min once daily 4 days"}, "[5]": {"conditions": "75 mg/ml nebulization 25 min once daily 4 days"}}, "note": "Several values for one entry are separate records, joined by “and”; a condition that tells them apart may be missing. Identical values can stand only once. Like-named read-outs stand apart in the source and are kept apart here.", "data": [{"smiles": "COC(=O)C1=CO[C@@H](O[C@@H]2O[C@H](CO[C@@H]3O[C@H](CO)[C@@H](O)[C@H](O)[C@H]3O)[C@@H](O)[C@H](O)[C@H]2O)[C@@H]2C(CO)=CC[C@H]12", "note": "[Genipin-1-β-D-gentiobioside]", "values": [{"measurement": "Inflammatory Factor Levels in Lung Tissue IL-1β", "setting": "[1]; 37.5 mg/ml inhalation", "value": "147.59 ± 41.87", "unit": "pg/mL"}, {"measurement": "Inflammatory Factor Levels in Lung Tissue IL-6", "setting": "[1]; 37.5 mg/ml inhalation", "value": "150.92 ± 7.65", "unit": "pg/mL"}, {"measurement": "Inflammatory Factor Levels in Lung Tissue TNF-α", "setting": "[1]; 37.5 mg/ml inhalation", "value": "248.53 ± 93.97", "unit": "pg/mL"}, {"measurement": "Inflammatory Factor Levels in Lung Tissue IL-1β", "setting": "[1]; 75 mg/ml inhalation", "value": "148.31 ± 10.97", "unit": "pg/mL"}, {"measurement": "Inflammatory Factor Levels in Lung Tissue IL-6", "setting": "[1]; 75 mg/ml inhalation", "value": "163.92 ± 8.54", "unit": "pg/mL"}, {"measurement": "Inflammatory Factor Levels in Lung Tissue TNF-α", "setting": "[1]; 75 mg/ml inhalation", "value": "312.79 ± 81.52", "unit": "pg/mL"}, {"measurement": "Inhibition Rate (lung index)", "setting": "[2]; 37.5 mg/kg/d i.v. 4 days", "value": 75.12, "unit": "%"}, {"measurement": "Lung Index", "setting": "[2]; 37.5 mg/kg/d i.v. 4 days", "value": "0.95 ± 0.11 g lung weight × 100 g/body weight"}, {"measurement": "Inhibition Rate (lung index)", "setting": "[2]; 75 mg/kg/d i.v. 4 days", "value": 71.04, "unit": "%"}, {"measurement": "Lung Index", "setting": "[2]; 75 mg/kg/d i.v. 4 days", "value": "0.96 ± 0.12 g lung weight × 100 g/body weight"}, {"measurement": "Inhibition Rate (lung index)", "setting": "[2]; 150 mg/kg/d i.v. 4 days", "value": 99.06, "unit": "%"}, {"measurement": "Lung Index", "setting": "[2]; 150 mg/kg/d i.v. 4 days", "value": "0.89 ± 0.06 g lung weight × 100 g/body weight"}, {"measurement": "Inhibition Rate (viral load)", "setting": "[3]; [4]", "value": "57.54% and 57.43%"}, {"measurement": "Viral Load in lung tissue", "setting": "[3]; [4]", "value": "22127.79 ± 30384.54", "unit": "copies/ng"}, {"measurement": "Inhibition Rate (viral load)", "setting": "[3]; [5]", "value": 56.08, "unit": "%"}, {"measurement": "Viral Load in lung tissue", "setting": "[3]; [5]", "value": "22745.57 ± 13287.06", "unit": "copies/ng"}]}]}
